Data taken from paper PMC8213153 (PLoS ONE, 2021).
Converted amounts (≈) assume the structure as drawn. Like-named read-outs stand apart in the source and are kept apart here.

What was measured:
IL-6 = IL-6 level of virus-infected Vero cells (ELISA); format: cell-based
Protocol: (§1) To enable measurement of IL-6, IL-10 and TNF-α levels, the culture medium of the treated cells was collected in sterile micro-tubes and centrifuged at 3,500 rpm for 20 minutes. The supernatants were carefully collected and diluted with aquadest at a 1:5 volume ratio and vortexed until homogenous. The samples were deposited onto a well-plate, added to ELISA reagents (Bioassay Technology Laboratory, Shanghai, China), and incubated at 37°C for 60 minutes. Reagent substrate solution was then added to the well and incubated for ten minutes at 37°C. The samples were measured for antigen concentration using the optical density (OD) plotted into the standard curves of IL-6, IL-10, and TNF-α.

TNF-α = TNF-α level of virus-infected Vero cells (ELISA); format: cell-based
Protocol: as §1

IL-10 = IL-10 level of virus-infected Vero cells (ELISA); format: cell-based
Protocol: as §1

[1] = cited from earlier work
[2] = Cytotoxicity (MTT) assay of single and dual combinatory drugs; format: cell-based; conditions: human
Protocol: Each tablet containing drugs was triturated and mixed until homogenous. Approximately 50 mg equivalent mass of drugs were weighed and added to dimethyl sulfoxide in order to solubilize the drugs. The suspension was sonicated in a water bath for 15 minutes before being added to Rosewell Park Memorial Institute (RPMI) media, sonicated again and vortexed to mix it until homogenous. The suspension was then filtered through a polycarbonate membrane with a pore size of 0.45 μm and then a pore size of 0.22 μm under aseptic conditions. The filtrate was mixed with 10% foetal bovine serum and penicillin streptomycin before being vortexed to produce a homogenous mixture to be used as a stock solution. The samples were prepared by diluting the stock solution of each drug with RPMI complete media at an appropriate level of dilution to produce a determined concentration. The dual combinatory drugs mixtures were prepared by mixing appropriate amounts of two drug stock solutions in order to produce a final concentration at the required level. The combinatory drugs were evaluated at both constant and non-constant ratios to evaluate their effects on the cytotoxicity, including; antagonistic, synergistic, or additive. A constant ratio of the mixture was achieved by adding drug solutions at the same ratio, thereby increasing each drug concentration, to produce dose escalation. In contrast, at a non-constant ratio, a fixed determined concentration of drug was added to increased doses of other drug solution in order to produce different levels of drug concentration.
The cytotoxic concentration (CC50) of drugs was performed by means of MTT assay at the Stem Cell Research and Development Center, Universitas Airlangga using human umbilical cord mesenchymal stem cells which had been obtained from human placenta tissue as approved by the Ethical Committee of Universitas Airlangga Hospital (Certificate number 101/KEH/2019 dated January 10, 2019). The cells were prepared as the primary cell culture and used for the cytotoxicity assay because of their sensitivity to chemicals. Cells were seeded into 96-well microplates at a concentration of 1x10^3 cells/well in 100 μL Alpha Minimum Essentials Medium (α-MEM, Gibco, USA) supplemented with 10% foetal bovine serum, 1% penicillin-streptomycin and 1% amphotericin-B. The plates were then incubated in a CO2 incubator at 37°C with 5% CO2 for 24 hours, at which point, the supernatant was replaced with α-MEM containing drugs at each concentration and incubated for a further 48 hours. Approximately 25μL of 3-(4,5-Dimethylthiazol-2-yl)-2,5-diphenyl tetrazolium-bromide (MTT) reagent at a concentration of 5mg/mL was subsequently added to each well and incubated for four hours at 37°C with 5% CO2. Purple formazan crystals were formed and observed under an inverted microscope. Dimethyl sulfoxide was added to each well with the complete solubilisation of formazan crystals subsequently being observed. The greater the number of formazan crystals formed, the lower the toxicity of the samples which were read for optical density of formazan using a multi reader at a measurement wavelength of 595 nm (Promega Glomax, USA). The CC50 value was analyzed by CompuSyn software (the ComboSyn Inc., accessed from www.combosyn.com).
In this study, the cytotoxicity assay was evaluated for single and dual combinatory drugs during a period of 48 hours of drug incubation. This assay was intended to evaluate the toxicity of dual combinatory drugs on normal cells. The combination ratios were calculated taking into consideration the usual therapeutic doses and plasma peak concentrations of the drugs. To determine this cytotoxicity, the drugs were mixed at both constant and non-constant ratios.

SARS-CoV-2 virus = assay: microbe, parasite or virus in culture; format: cell-based; conditions: for IC50: Severe acute respiratory syndrome coronavirus 2, Vero

CC[C@H]1OC(=O)[C@H](C)[C@@H](O[C@H]2C[C@@](C)(OC)[C@@H](O)[C@H](C)O2)[C@H](C)[C@@H](O[C@@H]2O[C@H](C)C[C@H](N(C)C)[C@H]2O)[C@](C)(OC)C[C@@H](C)C(=O)[C@H](C)[C@@H](O)[C@]1(C)O [CLA, Clarithromycin]
IL-6 (IL-6; 0.5 μg/mL, 24-h): 15.61 ± 0.85 ng/L
IL-6 (IL-6; 0.5 μg/mL, 48-h): 28.56 ± 0.62 ng/L
IL-6 (IL-6; 0.5 μg/mL, 72-h): 48.22 ± 0.35 ng/L
IL-6 (IL-6; 4 μg/mL, 24-h): 14.85 ± 0.51 ng/L
IL-6 (IL-6; 4 μg/mL, 48-h): 30.07 ± 0.09 ng/L
IL-6 (IL-6; 4 μg/mL, 72-h): 51.13 ± 0.94 ng/L
IL-6 (IL-6; 8 μg/mL, 24-h): 15.61 ± 0.57 ng/L
IL-6 (IL-6; 8 μg/mL, 48-h): 34.67 ± 0.50 ng/L
IL-6 (IL-6; 8 μg/mL, 72-h): 64.93 ± 2.50 ng/L
IL-6 (IL-6; 1, 4, 8 μg/mL, 24, 48, 72h): ↘↘ (1, 4, 8 μg/mL; 24, 48, 72h)
IL-6 (in words) (IL-6; Table 5): reduced
TNF-α (TNF-α; 0.5 μg/mL, 24-h): 20.39 ± 0.57 pg/mL
TNF-α (TNF-α; 0.5 μg/mL, 48-h): 426.37 ± 1.40 pg/mL
TNF-α (TNF-α; 0.5 μg/mL, 72-h): 612.06 ± 1.54 pg/mL
TNF-α (TNF-α; 4 μg/mL, 24-h): 100.04 ± 1.44 pg/mL
TNF-α (TNF-α; 4 μg/mL, 48-h): 404.07 ± 0.10 pg/mL
TNF-α (TNF-α; 4 μg/mL, 72-h): 609.56 ± 0.14 pg/mL
TNF-α (TNF-α; 8 μg/mL, 24-h): 43.92 ± 1.13 pg/mL
TNF-α (TNF-α; 8 μg/mL, 48-h): 382.62 ± 0.86 pg/mL
TNF-α (TNF-α; 8 μg/mL, 72-h): 609.56 ± 0.14 pg/mL
TNF-α (TNF-α; 24, 48, and 72 hours, cell without concentration): No effects
TNF-α levels (in words) (TNF-α; Table 5): no effects
IL-10 (IL-10; 0.5 μg/mL, 24-h): 36.80 ± 1.13 pg/mL
IL-10 (IL-10; 0.5 μg/mL, 48-h): 105.49 ± 1.32 pg/mL
IL-10 (IL-10; 0.5 μg/mL, 72-h): 507.18 ± 0.00 pg/mL
IL-10 (IL-10; 4 μg/mL, 24-h): 36.80 ± 0.08 pg/mL
IL-10 (IL-10; 4 μg/mL, 48-h): 58.15 ± 1.41 pg/mL
IL-10 (IL-10; 4 μg/mL, 72-h): 498.75 ± 0.00 pg/mL
IL-10 (IL-10; 8 μg/mL, 24-h): 24.75 ± 0.58 pg/mL
IL-10 (IL-10; 8 μg/mL, 48-h): 79.10 ± 0.00 pg/mL
IL-10 (IL-10; 8 μg/mL, 72-h): 445.89 ± 0.07 pg/mL
IL-10 (IL-10; 8 μg/mL, 48h): ↗↗ (8 μg/mL; 48h)
IL-10 levels (in words) (IL-10; Table 5): increased
Peak Plasma Concentration ([1]; oral 250 mg Clarithromycin twice a day): 1 µg/mL
Peak Plasma Concentration ([1]; oral 500 mg Clarithromycin twice a day): 2.41 µg/mL
CC50 at 48 h ([2]; LOPIRITO-CLA experiment (Fig 5), 48 hours, CompuSyn, n = 3, read-out: CC50): 2280 µg/mL
viability at 48 h, 0.2 μg/mL ([2]; LOPIRITO-CLARITHROMYCIN series, 0.2 μg/mL, read-out: Cell Viability (%)): 134%
viability at 48 h, 2 μg/mL ([2]; LOPIRITO-CLARITHROMYCIN series, 2 μg/mL, read-out: Cell Viability (%)): 92.6%
viability at 48 h, 10 μg/mL ([2]; LOPIRITO-CLARITHROMYCIN series, 10 μg/mL, read-out: Cell Viability (%)): 79.4%
viability at 48 h, 100 μg/mL ([2]; LOPIRITO-CLARITHROMYCIN series, 100 μg/mL, read-out: Cell Viability (%)): 92.6%
viability at 48 h, 400 μg/mL ([2]; LOPIRITO-CLARITHROMYCIN series, 400 μg/mL, read-out: Cell Viability (%)): 74.3%
Virus Titer (SARS-CoV-2 virus; 0.5 μg/mL, 24-h): 38.47 viral protein fg/mL
Virus Titer (SARS-CoV-2 virus; 8 μg/mL, 24-h): 38.03 viral protein fg/mL
Virus Titer (SARS-CoV-2 virus; 8 μg/mL, 48-h): 39.09 viral protein fg/mL
Virus Titer (SARS-CoV-2 virus; 8 μg/mL, 72-h): 37.46 viral protein fg/mL
Drug concentration that produced an undetected virus copy number (SARS-CoV-2 virus; MoI 0.04, at 24, 48, and/or 72 hours' incubation): 8 µg/mL
IC50 (SARS-CoV-2 virus; 24h, MoI 0.04): 4.6 µg/mL (≈ 6.15 µM)
IC50 (SARS-CoV-2 virus; 48h, MoI 0.04): 0.6 µg/mL (≈ 0.802 µM)
IC50 (SARS-CoV-2 virus; 72h, MoI 0.04): 0.9 µg/mL (≈ 1.2 µM)
